The subject of assay [1] is TMD-8 cells. Kind of assay: Cell proliferation assay (CellTiter-Glo), TMD-8 cells. Format: cell-based. Conditions: Homo sapiens, TMD8, 120 h, 5-day treatment, read-out: TMD8 cell growth (GI50 μM). The procedure:
Cell proliferation assay: TMD-8 and SU-DHL-1 cells were maintained at 37° C. in a humidified atmosphere with 5% CO2 in the recommended medium and serum concentrations. For cell proliferation assay, cells were seeded in 96-well pates at a density of 5,000 to 10,000 cells per well and cultured overnight at 37° C. in recommended medium supplemented with 5-10% FBS. On the next day, the test articles at various concentrations or vehicle control (0.5% DMSO) were added into cell culture. After 5-day treatment, the growth of cells was assayed by the CellTiter-Glo® Luminestceaent Cell Viability Assay (Promega). IC50 values were calculated using GraphPad Prism by plotting the logarithm of the concentration versus percent inhibition of cell growth as compared with the vehicle control.
(Cellular ATP, detected with luciferase, serves as a proxy for viable cell number.)

The target of assay [2] is T1, Btk (Homo sapiens, UniProt Q06187).
T1 construct: purchased Promega (Madison, Wis.)
Kind of assay: Btk kinase assay (ADP-Glo). As to conditions: ADP-Glo Btk kinase assay kit; ATP 1.2 μM; 60 minutes at room temperature. Format: biochemical. How it is done: Btk kinase assay—The Btk kinase assay was performed using a ADP-Glo Btk kinase assay kit purchased from Promega (Madison, Wis.). The assay was conducted according to the protocols provided in the assay kit. In brief, the enzyme reaction was carried out in the kinase reaction buffer containing Btk (2 ng/μl), ATP (1.2 μM), poly GT peptide (0.3 μM), DTT (40 nM), MnCl2 (1.4 mM), and 1 xkinase buffer (included in the kit) in the presence or absence of the tested articles at various concentrations in 384-well plate at room temperature (22±1° C.) for 60 minutes. The final reaction volume for each reaction was 10 μl. Then, 4 μl of ADP-Glo reagent (included in the kit) was added into the reaction and the plate was further incubated for another 40 minutes to terminate the reaction and deplete the remaining ATP. Finally, 10 μl of the kinase detection reagent was added into each reaction to simultaneously convert ADP to ATP and allow the newly synthesized ATP to be measured by a plate-reading luminometer (Victor X5 2030 multilabel reader, PerkinElmer). IC50 value was calculated using appropriate programs in GraphPad Prism by plotting the logarithm of the concentration versus percent inhibition as compared with a vehicle (DMSO) control.
On the technique in general: ADP-Glo turns the ADP formed in a reaction into a luminescent signal.

T1 sequence (Q06187 whole entry): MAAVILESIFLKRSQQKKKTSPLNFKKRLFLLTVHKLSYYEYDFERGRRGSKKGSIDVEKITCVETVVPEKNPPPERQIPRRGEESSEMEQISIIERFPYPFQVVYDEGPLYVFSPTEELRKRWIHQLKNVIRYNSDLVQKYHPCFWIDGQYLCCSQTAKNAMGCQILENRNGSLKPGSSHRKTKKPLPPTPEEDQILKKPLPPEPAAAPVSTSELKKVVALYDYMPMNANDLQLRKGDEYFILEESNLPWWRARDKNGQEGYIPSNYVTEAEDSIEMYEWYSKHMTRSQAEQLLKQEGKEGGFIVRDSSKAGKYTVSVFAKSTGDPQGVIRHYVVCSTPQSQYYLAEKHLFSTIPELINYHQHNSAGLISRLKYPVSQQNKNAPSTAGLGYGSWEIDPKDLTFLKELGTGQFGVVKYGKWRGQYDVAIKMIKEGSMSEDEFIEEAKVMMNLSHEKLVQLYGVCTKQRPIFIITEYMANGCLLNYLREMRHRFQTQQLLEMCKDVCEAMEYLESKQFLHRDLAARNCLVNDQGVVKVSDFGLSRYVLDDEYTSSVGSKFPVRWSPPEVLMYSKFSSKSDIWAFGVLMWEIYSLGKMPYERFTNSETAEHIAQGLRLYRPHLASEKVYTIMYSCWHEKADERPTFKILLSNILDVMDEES

In the case of `C=CC(=O)N1CCC(Nc2ncnc3[nH]c(C#CCOc4cccc(OC)c4)nc23)C1` (stereo not drawn) [Example 26, 1-(3-((8-(3-(3-methoxyphenoxy)prop-1-yn-1-yl)-9H-purin-6-yl)amino)pyrrolidin-1-yl)prop-2-en-1-one], the concentration for 50% growth inhibition (GI50) – broadly, the concentration giving 50% growth inhibition – in assay [1] was 0.247 µM. Further, the IC50 (in general, the concentration needed to halve the response being measured) in assay [2] came to 6.5 nM.

Turning to `C=CC(=O)N1CCC(Nc2ncnc3[nH]c(C#CCOc4ccc(OC)cc4)nc23)C1` (stereo not drawn) [Example 27, 1-(3-((8-(3-(4-methoxyphenoxy)prop-1-yn-1-yl)-9H-purin-6-yl)amino)pyrrolidin-1-yl)prop-2-en-1-one], the GI50 in assay [1] was 0.094 µM. The molecule further came in with a half-maximal inhibitory concentration (IC50) in assay [2] of 16 nM.

Consider `COc1ccccc1OCC#Cc1nc2c(NC3CCN(C(=O)/C=C/CN(C)C)C3)ncnc2[nH]1` (stereo not drawn) [Example 28, (E)-1-(3-((8-(3-(2-methoxyphenoxy)prop-1-yn-1-yl)-9H-purin-6-yl)amino)pyrrolidin-1-yl)-4-(dimethylamino)but-2-en-1-one], for which the GI50 in assay [1] is 0.082 µM. For the same molecule, in assay [2], the midpoint of inhibition, the IC50, lay at 0.4 nM.

With `COc1cccc(OCC#Cc2nc3c(NC4CCN(C(=O)/C=C/CN(C)C)C4)ncnc3[nH]2)c1` (stereo not drawn) [Example 29, (E)-1-(3-((8-(3-(3-methoxyphenoxy)prop-1-yn-1-yl)-9H-purin-6-yl)amino)pyrrolidin-1-yl)-4-(dimethylamino)but-2-en-1-one], the GI50 in assay [1] worked out at 1.21 µM. In addition, the half-inhibitory concentration (IC50) in assay [2] is 0.7 nM.

For the molecule `COc1ccc(OCC#Cc2nc3c(NC4CCN(C(=O)/C=C/CN(C)C)C4)ncnc3[nH]2)cc1` (stereo not drawn) [Example 30, (E)-1-(3-((8-(3-(4-methoxyphenoxy)prop-1-yn-1-yl)-9H-purin-6-yl)amino)pyrrolidin-1-yl)-4-(dimethylamino)but-2-en-1-one], the GI50 in assay [1] was found to be 1.2 µM. In assay [2], this molecule showed an IC50 of 19 nM.

Take `C=CC(=O)N1CC[C@@H](Nc2ncnc3[nH]c(C#CCOc4ccccc4)nc23)C1` [Example 31, (R)-1-(3-((8-(3-phenoxyprop-1-yn-1-yl)-9H-purin-6-yl)amino)pyrrolidin-1-yl)prop-2-en-1-one]: the GI50 in assay [1] worked out at 0.02 µM. This molecule showed an IC50 in assay [2] of 1.6 nM.

For the molecule `CN(C)C/C=C/C(=O)N1CC[C@@H](Nc2ncnc3[nH]c(C#CCOc4ccccc4)nc23)C1` [Example 32, (R,E)-4-(dimethylamino)-1-(3-((8-(3-phenoxyprop-1-yn-1-yl)-9H-purin-6-yl)amino)pyrrolidin-1-yl)but-2-en-1-one], the 50% growth inhibitory concentration (GI50) in assay [1] came to 0.004 µM. In assay [2], the IC50 was found to be 7.5 nM.

As for `CN(C)C/C=C/C(=O)N1CCC(Nc2ncnc3[nH]c(C#CCOc4ccccc4)cc23)C1` (stereo not drawn) [Example 34, (E)-4-(dimethylamino)-1-(3-((6-(3-phenoxyprop-1-yn-1-yl)-7H-pyrrolo[2,3-d]pyrimidin-4-yl)amino)pyrrolidin-1-yl)but-2-en-1-one], in assay [1], the 50% growth inhibitory concentration (GI50) was 0.107 µM. This molecule came in with an IC50 in assay [2] of 0.3 nM.

With `CNC/C=C/C(=O)N1CCC(Nc2ncnc3[nH]c(C#CCOc4ccccc4)cc23)C1` (stereo not drawn) [Example 35], the GI50 in assay [1] was 0.95 µM. In assay [2], this molecule returned an IC50 of 0.4 nM.

Turning to `O=C(/C=C/CN1CCOCC1)N1CCC(Nc2ncnc3[nH]c(C#CCOc4ccccc4)cc23)C1` (stereo not drawn) [Example 36, (E)-4-morpholino-1-(3-((6-(3-phenoxyprop-1-yn-1-yl)-7H-pyrrolo[2,3-d]pyrimidin-4-yl)amino)pyrrolidin-1-yl)but-2-en-1-one], the 50% growth inhibitory concentration (GI50) in assay [1] worked out at 0.552 µM. The molecule further had an IC50 in assay [2] of 127 nM.

Turning to `C=CC(=O)N1CCC(N(C)c2ncnc3[nH]c(C#CCOc4ccccc4)cc23)C1` (stereo not drawn) [Example 38, 1-(3-(methyl(6-(3-phenoxyprop-1-yn-1-yl)-7H-pyrrolo[2,3-d]pyrimidin-4-yl)amino)pyrrolidin-1-yl)prop-2-en-1-one], the concentration for 50% growth inhibition (GI50) in assay [1] was found to be 0.209 µM. This molecule registered an IC50 in assay [2] of 384 nM.

With `CN(C)C/C=C/C(=O)N1CCC(N(C)c2ncnc3[nH]c(C#CCOc4ccccc4)cc23)C1` (stereo not drawn) [Example 39, (E)-4-(dimethylamino)-1-(3-(methyl(6-(3-phenoxyprop-1-yn-1-yl)-7H-pyrrolo[2,3-d]pyrimidin-4-yl)amino)pyrrolidin-1-yl)but-2-en-1-one], in assay [1], the GI50 came out at 0.299 µM. The molecule also returned an IC50 in assay [2] of 192 nM.

For the molecule `C=CC(=O)N1CC[C@@H](Nc2ncnc3[nH]c(C#CCOc4ccccc4)cc23)C1` [Example 40, (R)-1-(3-((6-(3-phenoxyprop-1-yn-1-yl)-7H-pyrrolo[2,3-d]pyrimidin-4-yl)amino)pyrrolidin-1-yl)prop-2-en-1-one], the GI50 in assay [1] came to 0.004 µM. The IC50 in assay [2] came out at 0.3 nM.

For the molecule `CN(C)C/C=C/C(=O)N1CC[C@@H](Nc2ncnc3[nH]c(C#CCOc4ccccc4)cc23)C1` [Example 41, (R,E)-4-(dimethylamino)-1-(3-((6-(3-phenoxyprop-1-yn-1-yl)-7H-pyrrolo[2,3-d]pyrimidin-4-yl)amino)pyrrolidin-1-yl)but-2-en-1-one], in assay [1], the GI50 worked out at 0.069 µM. The molecule also showed a concentration for half-maximal inhibition (IC50) in assay [2] of 0.08 nM.

In the case of `C=CC(=O)N1CC[C@@H](Nc2ncnc3[nH]c(C#CCOc4ccccc4Cl)cc23)C1` [Example 43, (R)-1-(3-((6-(3-(2-chlorophenoxy)prop-1-yn-1-yl)-7H-pyrrolo[2,3-d]pyrimidin-4-yl)amino)pyrrolidin-1-yl)prop-2-en-1-one], the GI50 in assay [1] worked out at 0.001 µM. In assay [2], this molecule showed a half-inhibitory concentration (IC50) of 0.14 nM.

On to `CN(C)C/C=C/C(=O)N1CC[C@@H](Nc2ncnc3[nH]c(C#CCOc4ccccc4Cl)cc23)C1` [Example 44, (R,E)-1-(3-((6-(3-(2-chlorophenoxy)prop-1-yn-1-yl)-7H-pyrrolo[2,3-d]pyrimidin-4-yl)amino)pyrrolidin-1-yl)-4-(dimethylamino)but-2-en-1-one], for which, in assay [1], the GI50 worked out at 0.012 µM. The same molecule displayed a concentration for half-maximal inhibition (IC50) in assay [2] of 0.11 nM.

Turning to `C=CC(=O)N1CC[C@@H](Nc2ncnc3[nH]c(C#CCOc4ccccc4OC)cc23)C1` [Example 45, (R)-1-(3-((6-(3-(2-methoxyphenoxy)prop-1-yn-1-yl)-7H-pyrrolo[2,3-d]pyrimidin-4-yl)amino)pyrrolidin-1-yl)prop-2-en-1-one], the 50% growth inhibitory concentration (GI50) in assay [1] turned out to be 0.0014 µM. The IC50 in assay [2] is 1.1 nM.

`COc1ccccc1OCC#Cc1cc2c(N[C@@H]3CCN(C(=O)/C=C/CN(C)C)C3)ncnc2[nH]1` [Example 46, (R,E)-1-(3-((6-(3-(2-methoxyphenoxy)prop-1-yn-1-yl)-7H-pyrrolo[2,3-d]pyrimidin-4-yl)amino)pyrrolidin-1-yl)-4-(dimethylamino)but-2-en-1-one]: in assay [1], the GI50 was found to be 0.017 µM. The 50% inhibitory concentration (IC50) in assay [2] is 0.04 nM.

For the molecule `CC#CC(=O)N1CC[C@@H](Nc2ncnc3[nH]c(C#CCOc4ccccc4F)cc23)C1` [Example 47, (R)-1-(3-((6-(3-(2-fluorophenoxy)prop-1-yn-1-yl)-7H-pyrrolo[2,3-d]pyrimidin-4-yl)amino)pyrrolidin-1-yl)but-2-yn-1-one], the concentration for 50% growth inhibition (GI50) in assay [1] came out at 0.008 µM. The molecule further gave an IC50 in assay [2] of 136 nM.

Take `C/C=C/C(=O)N1CC[C@@H](Nc2ncnc3[nH]c(C#CCOc4ccccc4F)cc23)C1` [Example 48, (R,E)-1-(3-((6-(3-(2-fluorophenoxy)prop-1-yn-1-yl)-7H-pyrrolo[2,3-d]pyrimidin-4-yl)amino)pyrrolidin-1-yl)but-2-en-1-one]: the GI50 in assay [1] worked out at 0.088 µM. In assay [2], the half-maximal inhibitory concentration (IC50) is 432 nM.

With `CN(C)C/C=C/C(=O)N1CC[C@@H](Nc2ncnc3[nH]c(C#CCOc4ccccc4F)cc23)C1` [Example 49, (R,E)-1-(3-((6-(3-(2-fluorophenoxy)prop-1-yn-1-yl)-7H-pyrrolo[2,3-d]pyrimidin-4-yl)amino)pyrrolidin-1-yl)-4-(dimethylamino)but-2-en-1-one], the GI50 in assay [1] is 0.017 µM. For the same molecule, the IC50 in assay [2] was < 0.03 nM.

With `C=CC(=O)N1CC[C@@H](Nc2ncnc3[nH]c(C#Cc4ccccc4)cc23)C1` [Example 50, (R)-1-(3-((6-(phenylethynyl)-7H-pyrrolo[2,3-d]pyrimidin-4-yl)amino)pyrrolidin-1-yl)prop-2-en-1-one], in assay [1], the 50% growth inhibitory concentration (GI50) was 0.009 µM. The same molecule had an IC50 in assay [2] of 11 nM.

As to `C=CC(=O)N1CC[C@@H](Nc2ncnc3[nH]c(C#Cc4ccccc4F)cc23)C1` [Example 51, (R)-1-(3-((6-((2-fluorophenyl)ethynyl)-7H-pyrrolo[2,3-d]pyrimidin-4-yl)amino)pyrrolidin-1-yl)prop-2-en-1-one], the GI50 in assay [1] amounted to 0.016 µM. Moreover, in assay [2], half-maximal inhibition (IC50) was put at 18 nM.

For the molecule `CN(C)C/C=C/C(=O)N1CC[C@@H](Nc2ncnc3[nH]c(C#Cc4ccccc4F)cc23)C1` [Example 52, (R,E)-4-(dimethylamino)-1-(3-((6-((2-fluorophenyl)ethynyl)-7H-pyrrolo[2,3-d]pyrimidin-4-yl)amino)pyrrolidin-1-yl)but-2-en-1-one], in assay [1], the GI50 was determined as 0.187 µM. The molecule further returned an IC50 in assay [2] of 6 nM.

(Values after patent US10144737B2 (ETERNITY BIOSCIENCE INC., priority 2014, dated 2018).)
